Test results reported in paper PMC7108740, “Exploring the molecular structures that confer ligand selectivity for galanin type II and III receptors” (PLoS ONE, 2020).
Ends that are not written are not given here.

What was measured:
Format in all cases: cell-based
[1] = target: T1, GALR3 mutant L^184M,V^186I,A^187C, A^190V,G^192S (Homo sapiens, UniProt O60755, A187C/A190V/G192S/L184M/V186I); experiment: SRE-luc luciferase assay, GALR3 pentuple mutant (G192S); conditions: GALR3 L^184M,V^186I,A^187C, SRE-luc in HEK293 Gqi cells, ligand 6 h, mean ± S.E., SEM
T1 construct: expressed in transfected cells; host or cells: HEK293 cells stably expressing Gqi
Text: (§1) For domain swapping between GALR2 and GALR3, individual cDNA fragments of interest were amplified by polymerase chain reaction (PCR) with Pfu polymerase (ELPIS Biotech, Daejeon, Korea) and two specific primers, one corresponding to the 5' or 3' end of the GALR2 or GALR3 cDNA and the other to the region of overlap between the two receptors. The two resulting fragments, one from GALR2 and the other from GALR3, were subjected to a second round of PCR to generate the chimeric cDNAs. To construct single, double-, triple-, pentuple-, hextuple-, and septuple-mutant receptors, amino acids of GALR3 were substituted for the amino acids at the corresponding positions in GALR2 using PCR-based site-directed mutagenesis. All of the chimeric constructs were cloned into the pcDNA3 expression vector at HindⅢ and XbaⅠ sites. The DNA sequences of the chimeras were verified by automatic sequencing. […] The luciferase activity in 50 μl cell extract was determined using a luciferase assay system according to the standard protocol for the Synergy 2 Multi-Mode Microplate Reader (BioTek, Winooski, VT, USA). […] The concentrations of agonists that induced half-maximal stimulation (EC50) were calculated using the GraphPad PRISM5 software (GraphPad software, Inc., San Diego, CA). […]

[2] = target: T2, GALR3 single mutant L^184M (Homo sapiens, UniProt O60755, L184M); experiment: SRE-luc luciferase assay, GALR3 L184M; conditions: GALR3 L^184M; SRE-luc in HEK293 Gqi cells, ligand 6 h; mean ± S.E.; SEM
T2 construct: expressed in transfected cells; host or cells: HEK293 cells stably expressing Gqi
Text: as §1

[3] = target: T3, GALR3 mutant L^184M,V^186I,A^190V (Homo sapiens, UniProt O60755, A190V/L184M/V186I); experiment: SRE-luc luciferase assay, GALR3 L184M,V186I,A190V; conditions: GALR3 L^184M,V^186I,A^190V; SRE-luc in HEK293 Gqi cells, ligand 6 h; mean ± S.E.; SEM
T3 construct: expressed in transfected cells; host or cells: HEK293 cells stably expressing Gqi
Text: as §1

human GALR2 = target: T4, human GALR2 (Homo sapiens, UniProt O43603); experiment: SRE-luc luciferase assay, WT GALR2; conditions: SRE-luc in HEK293 Gqi cells, ligand 6 h, mean ± SE, at least three independent experiments, SEM
T4 construct: host or cells: HEK293 cells stably expressing Gqi
T4 sequence (O43603 1-387): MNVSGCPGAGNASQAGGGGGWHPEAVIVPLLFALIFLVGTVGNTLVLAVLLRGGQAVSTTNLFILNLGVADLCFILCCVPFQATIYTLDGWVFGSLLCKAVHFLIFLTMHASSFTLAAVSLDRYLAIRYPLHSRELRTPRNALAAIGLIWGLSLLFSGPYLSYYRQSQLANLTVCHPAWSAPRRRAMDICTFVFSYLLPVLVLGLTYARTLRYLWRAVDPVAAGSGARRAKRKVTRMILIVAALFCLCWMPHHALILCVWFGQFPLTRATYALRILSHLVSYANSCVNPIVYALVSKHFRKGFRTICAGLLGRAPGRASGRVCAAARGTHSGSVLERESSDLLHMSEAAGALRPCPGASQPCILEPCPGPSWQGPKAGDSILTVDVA
Text: The pcDNA3.1 vector was purchased from Invitrogen (San Diego, CA, USA). The serum response element (SRE)-luciferase (SRE-luc) vector containing a single copy of the SRE (CCATATTAGG) conjugated with luciferase was purchased from Stratagene (La Jolla, CA, USA). The cDNAs for human GALR1, GALR2, and GALR3 were obtained from BRN SCIENCE, Inc. The cDNAs were inserted into the EcoRⅠ and XhoⅠ sites of pcDNA3.1.
HEK293 cells stably expressing the Gqi construct, which allows induction of Gq-dependent signaling pathways upon activation of a Gi-coupled receptor [14, 30], were maintained in Dulbecco's Modified Eagle's Medium (DMEM) in the presence of 10% fetal bovine serum and 1% penicillin and streptomycin. For all transfections, 200 ng DNA (100 ng receptor and 100 ng SRE-luc) mixed with lipofectamine 2000 was applied to 60–80% confluent cells on a multi-well plate according to the manufacturer's instructions (Invitrogen, Carlsbad, CA).
For luciferase assays, HEK293 Gqi cells were seeded on 48-well plates at a density of 2.5 × 10^4 cells/well one day before transfection. A mixture including 100 ng SRE-luc reporter construct, 100 ng expression plasmid, and lipofectamine 2000 reagent in diluted Opti-MEM (Gibco) was incubated at room temperature for 20 min and then added into each well according to the manufacturer's instructions (Invitrogen, CA, USA). Before exposure to the ligands, the cells were maintained in serum-free DMEM for 16–18 h. Approximately 48 h after transfection, the cells were treated with ligand for 6 h. The cells were then lysed by the addition of 100 μl lysis buffer. The luciferase activity in 50 μl cell extract was determined using a luciferase assay system according to the standard protocol for the Synergy 2 Multi-Mode Microplate Reader (BioTek, Winooski, VT, USA).
Data analysis was performed by non-linear regression with a sigmoidal dose-response curve. The concentrations of agonists that induced half-maximal stimulation (EC50) were calculated using the GraphPad PRISM5 software (GraphPad software, Inc., San Diego, CA). All data are presented as the mean ± standard error (SE) of at least three independent experiments.

T3 sequence (O60755 whole entry L184M/V186I/A190V): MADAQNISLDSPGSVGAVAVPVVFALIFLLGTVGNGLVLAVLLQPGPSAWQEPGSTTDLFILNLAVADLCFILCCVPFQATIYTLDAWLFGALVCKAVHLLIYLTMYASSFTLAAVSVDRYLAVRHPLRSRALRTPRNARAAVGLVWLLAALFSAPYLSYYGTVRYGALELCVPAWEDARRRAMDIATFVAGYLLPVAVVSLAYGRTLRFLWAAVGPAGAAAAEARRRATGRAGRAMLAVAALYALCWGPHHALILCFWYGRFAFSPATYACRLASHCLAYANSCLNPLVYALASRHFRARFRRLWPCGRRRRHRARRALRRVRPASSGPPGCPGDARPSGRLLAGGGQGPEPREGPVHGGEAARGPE
T2 sequence (O60755 whole entry L184M): as the sequence (O60755 whole entry L184M/V186I/A190V) above, with I186V, V190A counted along it
T1 sequence (O60755 whole entry L184M/V186I/A187C/A190V/G192S): as the sequence (O60755 whole entry L184M/V186I/A190V) above, with A187C, G192S counted along it

| EC50 [1] [nM] | EC50 [2] [nM] | EC50 [3] [nM] | EC50 (human GALR2) [nM] | Compound |
| --- | --- | --- | --- | --- |
| 33.9 ± 9.89 | 46.8 ± 15.9 | 49 ± 16.6 | – | CSCC[C@H](NC(=O)[C@H](C)NC(=O)[C@H](CCC(N)=O)NC(=O)[C@@H]1CCCN1C(=O)[C@@H](NC(=O)[C@H](Cc1c[nH]c2ccccc12)NC(=O)[C@@H](N)CC(N)=O)[C@@H](C)O)C(=O)N[C@@H](CC(C)C)C(=O)N[C@@H](Cc1ccc(O)cc1)C(=O)N[C@@H](CC(C)C)C(=O)N[C@@H](CCCCN)C(=O)NCC(=O)N[C@@H](C)C(=O)N[C@@H](CCC(N)=O)C(N)=O [SPX, reference compound] |
| – | – | – | 87.7 ± 10.6 | NWTPNAMLYLKGAQ-NH2 [N^5-SPX] |
| – | – | – | 40.7 ± 13.2 | NWTPQAALYLKGAQ-NH2 [A^7-SPX] |
| 145 ± 24.3 | 437 ± 89.8 | 324 ± 89.2 | 33.1 ± 6.19 | NWTPQAMLYLKGPQ-NH2 [P^13-SPX] |
